Tests used:
[1] = tested on: NCI-H2342 (Lung Adenocarcinoma); test: combination Emax (second highest fraction inhibited in the dose matrix, 72 h); higher = more inhibition; extreme values may be limits of the assay
Procedure, shortened: (§1)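 Cell lines grown in DMEM/F12 or RPMI with 10% FBS were plated in 1536-well plates and held 24 hours at 37°C, 5% CO2 before 72 hours of exposure to two-drug dose matrices, with DMSO typically at 0.2%. CellTiter-Glo 2.0 luminescence gave viability, which was converted to inhibition. Vehicle wells were set to 0 and blank wells to 1. Combination Emax is the second-highest inhibition in the matrix, and Bliss excess is the observed combination effect minus the expected EA + EB − EA·EB, where EA and EB are the single-agent effects.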

[2] = tested on: TE-8 (Esophageal Squamous Cell Carcinoma); test: as above
Procedure, shortened: as §1

[3] = tested on: MFE-280 (Endometrial Carcinoma); test: as above
Procedure, shortened: as §1

[4] = tested on: LK-2 (Squamous Cell Lung Carcinoma); test: as above
Procedure, shortened: as §1

[5] = tested on: RKN (Other Solid Carcinomas); test: as above
Procedure, shortened: as §1

[6] = tested on: PSN1 (Pancreatic Carcinoma); test: as above
Procedure, shortened: as §1

SK-MEL-2 (Melanoma) = test: as above
Procedure, shortened: as §1

[7] = tested on: CAL-62 (Thyroid Gland Carcinoma); test: as above
Procedure, shortened: as §1

[8] = tested on: REH (B-Lymphoblastic Leukemia); test: as above
Procedure, shortened: as §1

[9] = tested on: COLO-680N (Esophageal Squamous Cell Carcinoma); test: as above
Procedure, shortened: as §1

[10] = tested on: VAL (B-Cell Non-Hodgkin's Lymphoma); test: as above
Procedure, shortened: as §1

[11] = tested on: HSC-39 (Gastric Carcinoma); test: as above
Procedure, shortened: as §1

[12] = tested on: MKN45 (Gastric Carcinoma); test: as above
Procedure, shortened: as §1

[13] = tested on: PC-3_[JPC-3] (Lung Adenocarcinoma); test: as above
Procedure, shortened: as §1

[14] = tested on: RCM-1 (Colorectal Carcinoma); test: as above
Procedure, shortened: as §1

[15] = tested on: SHP-77 (Small Cell Lung Carcinoma); test: as above
Procedure, shortened: as §1

[16] = tested on: NCI-H2342 (Lung Adenocarcinoma); test: Bliss excess, mean over the matrix (fraction); higher = more synergy
Procedure, shortened: as §1

[17] = tested on: PANC-03-27 (Pancreatic Carcinoma); test: as above
Procedure, shortened: as §1

[18] = tested on: HSC-39 (Gastric Carcinoma); test: as above
Procedure, shortened: as §1

[19] = tested on: MKN45 (Gastric Carcinoma); test: as above
Procedure, shortened: as §1
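For Bliss excess, mean over the matrix in this document: after 72 h of two-drug dosing.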

SMILES | combination Emax [1] | combination Emax [2] | combination Emax [3] | combination Emax [4] | combination Emax [5] | combination Emax [6] | combination Emax (SK-MEL-2 (Melanoma)) | combination Emax [7] | combination Emax [8] | combination Emax [9] | combination Emax [10] | combination Emax [11] | combination Emax [12] | combination Emax [13] | combination Emax [14] | combination Emax [15] | Bliss excess [16] | Bliss excess [17] | Bliss excess [18] | Bliss excess [19]
Cc1c2c(nn1C)CSCc1cc(n(C)n1)CSc1cc(c3ccccc3c1)OCCCc1c(C(=O)O)n(C)c3c-2c(Cl)ccc13 [AZD5991] + CS(=O)(=O)CCNCc1ccc(-c2ccc3ncnc(Nc4ccc(OCc5cccc(F)c5)c(Cl)c4)c3c2)o1 [Lapatinib] (first compound max 1 µM, 7x7, partner max 10 µM) | 0.34 | 0.409 | 0.347 | 0.186 | 0.205 | 0.316 | 0.955 | 0.237 | 0.862 | 0.291 | 0.677 | 1 | 0.245 | 0.833 | 0.409 | 0.42 | 0.012 | -0.0485 | -0.0305 | -0.146
Cc1c2c(nn1C)CSCc1cc(n(C)n1)CSc1cc(c3ccccc3c1)OCCCc1c(C(=O)O)n(C)c3c-2c(Cl)ccc13 [AZD5991] + Nc1ccn([C@@H]2O[C@H](CO)[C@@H](O)C2(F)F)c(=O)n1 [Gemcitabine] (first compound max 1 µM, 7x7, partner max 0.3 µM) | 0.636 | 0.574 | 0.468 | 0.674 | 0.107 | 0.846 | 0.925 | 0.751 | 0.984 | 0.365 | 0.847 | 1 | 0.64 | 0.58 | 0.392 | 0.595 | 0.0488 | 0.0182 | 0.006 | -0.0655
C[C@@H]1COCCN1c1cc(C2([S@](C)(=N)=O)CC2)nc(-c2ccnc3[nH]ccc23)n1 [AZD6738] + Nc1ccn([C@@H]2O[C@H](CO)[C@@H](O)C2(F)F)c(=O)n1 [Gemcitabine] (first compound max 10 µM, 7x7, partner max 0.3 µM) | 0.85 | 0.83 | 0.864 | 0.918 | 0.788 | 0.893 | 0.454 | 0.871 | 0.994 | 0.529 | 0.809 | 1 | 0.756 | 0.665 | 0.744 | 0.931 | 0.086 | -0.0185 | -0.0049 | -0.0824
Cc1cc2ncnn2cc1Nc1ncc2c(n1)n(C1CCOCC1)c(=O)n2C [AZD7648] + COc1cc([C@@H]2c3cc4c(cc3[C@@H](O[C@@H]3O[C@@H]5CO[C@@H](C)O[C@H]5[C@H](O)[C@H]3O)[C@H]3COC(=O)[C@H]23)OCO4)cc(OC)c1O [Etoposide] (first compound max 10 µM, 7x7, partner max 10 µM) | 0.569 | 0.602 | 0.889 | 0.784 | 0.598 | 0.834 | 0.166 | 0.829 | 0.976 | 0.404 | 0.905 | 0.854 | 0.582 | 0.415 | 0.515 | 0.546 | 0.0597 | -0.0401 | 0.0582 | -0.0126
C[C@@H](Nc1cc(F)cc(F)c1)c1cc(C(=O)N(C)C)cc2c(=O)cc(N3CCOCC3)oc12 [AZD8186] + C1CN(CCC1(C(=O)N[C@@H](CCO)C2=CC=C(C=C2)Cl)N)C3=NC=NC4=C3C=CN4 [AZD5363] (first compound max 10 µM, 7x7, partner max 10 µM) | 0.286 | 0.455 | 0.546 | 0.177 | 0.328 | 0.357 | 0.113 | 0.165 | 0.452 | 0.245 | 0.555 | 0.603 | 0.455 | 0.295 | 0.233 | 0.275 | 0.0003 | -0.0239 | -0.0271 | -0.038
C[C@@H](Nc1cc(F)cc(F)c1)c1cc(C(=O)N(C)C)cc2c(=O)cc(N3CCOCC3)oc12 [AZD8186] + CC(=O)c1c(C)c2cnc(Nc3ccc(N4CCNCC4)cn3)nc2n(C2CCCC2)c1=O [Palbociclib] (first compound max 10 µM, 7x7, partner max 10 µM) | 0.337 | 0.502 | 0.518 | 0.237 | 0.292 | 0.558 | 0 | 0.36 | 0.625 | 0.419 | 0.707 | 0.813 | 0.534 | 0.369 | 0.335 | 0.337 | 0.0877 | 0.0614 | 0.0271 | -0.0476

— the supplement of paper PMC11061612
